The values below come from PubChem BioAssay (NCI).

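Cells were grown in 96-well plates and exposed to each compound for 48 hours at five concentrations; endpoints were interpolated linearly between bracketing concentrations, or set to the highest concentration if not reached. At the TGI there is no net growth.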

Among the test systems are 786-0 renal; HCT-15 colon; BT-549 breast; UO-31 renal; HT29 colon; SF-539 CNS; COLO 205 colon; HOP-62 NSCLC; MCF7 breast.
Assay in all cases: inhibition of tumour cell growth, NCI panel, 48 h

As for `COC(=O)CN1c2nc(C#N)c(C#N)nc2N(CC(=O)OC)c2nc(C#N)c(C#N)nc21`, the TGI in the assay on 786-0 renal was 5.21 µM; in the assay with HCT-15 colon it was above 36 µM; in the assay with BT-549 breast it was 11.3 µM; in the assay on UO-31 renal, above 25.6 µM; in the assay with HT29 colon it was 12.1 µM; in the assay on SF-539 CNS, 24.2 µM. In addition, the TGI with COLO 205 colon came out at 15.3 µM; in the assay on HOP-62 NSCLC, 34.3 µM; with MCF7 breast it was 18.4 µM.
As for `Clc1ccc(CSCCc2ccncc2)cc1Cl`, the TGI in the assay on 786-0 renal worked out at 33.1 µM; in the assay on HCT-15 colon it was 56.7 µM; in the assay on BT-549 breast, 42.6 µM; with UO-31 renal, 56.9 µM; with HT29 colon, 31.2 µM; in the assay with SF-539 CNS, 31.5 µM. Besides, the TGI is 27.2 µM in the assay with COLO 205 colon, 50.2 µM in the assay with HOP-62 NSCLC and 35.7 µM in the assay with MCF7 breast.
Consider `COc1nc2ncc([C@@H](OC(C)=O)[C@@H](COC(C)=O)OC(C)=O)nc2c(=O)[nH]1`, for which the TGI in the assay with 786-0 renal, in the assay with HCT-15 colon, in the assay on BT-549 breast, in the assay on UO-31 renal, in the assay with HT29 colon and in the assay on SF-539 CNS was above 100 µM throughout. The TGI with COLO 205 colon, in the assay on HOP-62 NSCLC and in the assay on MCF7 breast was above 100 µM throughout.
As to `CNc1ncnc2c1cnn2COCC(O)CO` (stereo unspecified), the TGI in the assay with 786-0 renal, with HCT-15 colon, with BT-549 breast, in the assay on UO-31 renal, in the assay on HT29 colon and in the assay on SF-539 CNS was above 100 µM in each case. Besides, the TGI in the assay on COLO 205 colon, in the assay with HOP-62 NSCLC and in the assay with MCF7 breast was above 100 µM in each case.
For the molecule `Nc1ccc(-c2nc3ccccc3s2)cc1C(F)(F)F`, the TGI was 26.6 µM in the assay on 786-0 renal; 27.6 µM in the assay on HCT-15 colon; 26.4 µM in the assay on BT-549 breast; 29.4 µM in the assay with UO-31 renal; 29.1 µM in the assay on HT29 colon; 37.7 µM with SF-539 CNS. For the same molecule, the TGI in the assay on COLO 205 colon was found to be 36.7 µM; in the assay with HOP-62 NSCLC, 30 µM; in the assay on MCF7 breast, 19.4 µM.
With `O=C1NCC(NC(=O)C(F)(F)F)c2c(Br)sc(Br)c21` (stereo unspecified), the TGI in the assay with 786-0 renal, in the assay with HCT-15 colon, in the assay with BT-549 breast, in the assay on UO-31 renal, with HT29 colon and in the assay on SF-539 CNS was above 100 µM each time. For the same molecule, the TGI in the assay with COLO 205 colon, in the assay on HOP-62 NSCLC and with MCF7 breast was above 100 µM throughout.
Turning to `c1csc(-c2ccc(-c3cccs3)c3nsnc23)c1`, the TGI in the assay on 786-0 renal was above 54 µM; in the assay on HCT-15 colon it was above 41.4 µM; with BT-549 breast, above 100 µM; in the assay with UO-31 renal it was above 100 µM; with HT29 colon, above 100 µM; in the assay on SF-539 CNS, above 51 µM. Besides, the values for the TGI in the assay with COLO 205 colon, with HOP-62 NSCLC and in the assay on MCF7 breast were 27.1 µM, above 95.7 µM and above 100 µM, respectively.
For the molecule `C[C@@H]1S[C@H](c2ccccc2F)N2Cc3ccccc3N=C12`, the TGI in the assay with 786-0 renal is 63.1 µM; in the assay on HCT-15 colon it was above 100 µM; with BT-549 breast it was above 100 µM; in the assay with UO-31 renal it was 54 µM; with HT29 colon, 86.6 µM; in the assay with SF-539 CNS it was above 100 µM. The TGI with COLO 205 colon, in the assay on HOP-62 NSCLC and in the assay on MCF7 breast was above 100 µM in each case.
For `COc1cc2nc(-c3cccs3)oc(=O)c2cc1OC`, the TGI in the assay on 786-0 renal, in the assay on HCT-15 colon, in the assay with BT-549 breast, in the assay with UO-31 renal, in the assay with HT29 colon and in the assay with SF-539 CNS was above 100 µM throughout. Moreover, the TGI was above 100 µM in the assay with COLO 205 colon, 69.1 µM with HOP-62 NSCLC and above 100 µM with MCF7 breast.
For the molecule `CC[n+]1[b-](C(C)(C)C)n(/N=C/C(C)(C)C)[b-](C(C)(C)C)[n+]1CC`, the TGI in the assay with 786-0 renal, in the assay on HCT-15 colon, in the assay with BT-549 breast, in the assay with UO-31 renal, with HT29 colon and in the assay on SF-539 CNS was above 100 µM throughout. Also, the TGI in the assay with COLO 205 colon, with HOP-62 NSCLC and in the assay on MCF7 breast was above 100 µM throughout.
On to `O=C(O)C(SC1=NNC2(C(=O)N1)c1ccccc1-c1ccccc12)SC1=NNC2(C(=O)N1)c1ccccc1-c1ccccc12`, for which the TGI in the assay with 786-0 renal, with HCT-15 colon, in the assay with BT-549 breast, with UO-31 renal, in the assay with HT29 colon and in the assay on SF-539 CNS was above 10 µM each time. For the same molecule, the TGI with COLO 205 colon, in the assay with HOP-62 NSCLC and with MCF7 breast was above 10 µM in each case.
Turning to `COC(=O)c1c2c(cc3c1CCC3)CCC2`, the TGI with 786-0 renal, in the assay with HCT-15 colon, in the assay on BT-549 breast, with UO-31 renal, in the assay with HT29 colon and in the assay on SF-539 CNS was above 100 µM in each case. The TGI in the assay with COLO 205 colon, in the assay with HOP-62 NSCLC and in the assay on MCF7 breast was above 100 µM in each case.
As for `C/C1=C\CC[C@@]2(C)O[C@@H]2C[C@@H](C2(C)CO2)CC/C(C)=C/CC1` (stereo partly specified), the TGI was 31.8 µM with 786-0 renal; 25 µM with HCT-15 colon; 42.8 µM with BT-549 breast; 55.9 µM in the assay on UO-31 renal; above 100 µM in the assay with HT29 colon; 46 µM in the assay on SF-539 CNS. For the same molecule, the TGI in the assay on COLO 205 colon came to 33.2 µM; in the assay on HOP-62 NSCLC it was 97.3 µM; in the assay on MCF7 breast it was 37.1 µM.
Take `N#CCc1nc(-c2ccccc2)n[nH]1`: the TGI in the assay with 786-0 renal, in the assay on HCT-15 colon, in the assay on BT-549 breast, in the assay on UO-31 renal, in the assay on HT29 colon and with SF-539 CNS was above 100 µM in each case. Moreover, the TGI with COLO 205 colon, with HOP-62 NSCLC and in the assay with MCF7 breast was above 100 µM each time.
